Measurements from US20250360235A1, “RADI[…] AND METHOD FOR RADIOLABELLING” (Telix Innovations SA, priority 2024, published 2025).

Assay: Radiochemical purity by HPLC over time after radiolabelling
Type: physicochemical
Method: Table 1 to Table 5 show the results of various radiolabelling experiments on radiochemical purity and the chelation yield. The radiolabelling experiments in the tables are carried out as described in: • Example 1 for when the gallium-68 source is GE Liquid target generator and EZAG GalliaPharm generator; • Example 2 for when the gallium-68 source is IRE Galli Eo generator; • Example 3 for when the gallium-68 source is GE solid target generator;
However, the experiments were carried out with the amount of ascorbic acid as indicated in the Tables 1 to 5, and the activity as indicated in the Tables 1 to 5. Radiochemical purities were measured at various times (T0, T1, T4, T6) after the radiolabelled experiments have been conducted.
The kits of Example 1, Example 2 or Example 3, with amounts of ascorbic acid as set out in Table 7 were used in the experiments for the ascorbic acid bracketing matrix. Three strengths of [^68Ga]Ga-PSMA-11 will be tested, i.e. 50 mCi/ml, 7 mCi/ml and 1 mCi/ml. Radiochemical purity was determined at different time points (TO, T1, T4 or T6), as set out in Table 7.

O=C([O-])CN(CCN(CC(=O)[O-])Cc1cc(CCC(=O)NCCCCCC(=O)NCCCC[C@H](NC(=O)N[C@@H](CCC(=O)O)C(=O)O)C(=O)O)ccc1[O-])Cc1cc(CCC(=O)O)ccc1[O-].[68Ga+3].[OH3+] [[^68Ga]PSMA-11, gallium-68 radiolabelled Glu-urea-Lys-HBED-CC (gozetotide or PSMA-11)]
Radiochemical Purity (HPLC) Ga-68 PSMA-11 (%) (25 mg ascorbic acid, 19.5-20.0 mCi, 1.85-1.90 mCi/mL, EZAG GalliaPharm, n=2, T0): C (C = all results conform to specifications) | Radiochemical Purity (HPLC) Ga-68 PSMA-11 (%) (25 mg ascorbic acid, 19.5-20.0 mCi, 1.85-1.90 mCi/mL, EZAG GalliaPharm, n=2, T1 (1 h)): C (C = all results conform to specifications) | Radiochemical Purity (HPLC) Ga-68 PSMA-11 (%) (25 mg ascorbic acid, 23.3-24 mCi, 2.22-2.28 mCi/mL, IRE Galli Eo, average of 2, T0): 100% | Radiochemical Purity (HPLC) Ga-68 PSMA-11 (%) (25 mg ascorbic acid, 23.3-24 mCi, 2.22-2.28 mCi/mL, IRE Galli Eo, average of 2, T4 (4 h)): 100% | Radiochemical Purity (HPLC) Ga-68 PSMA-11 (%) (25 mg ascorbic acid, 23.3-24 mCi, 2.22-2.28 mCi/mL, IRE Galli Eo, n=2, T0): C (C = all results conform to specifications) | Radiochemical Purity (HPLC) Ga-68 PSMA-11 (%) (25 mg ascorbic acid, 23.3-24 mCi, 2.22-2.28 mCi/mL, IRE Galli Eo, n=2, T4 (4 h)): C (C = all results conform to specifications) | Radiochemical Purity (HPLC) Ga-68 PSMA-11 (%) (25 mg ascorbic acid, 46.0-46.1 mCi, 4.38-4.39 mCi/mL, EZAG GalliaPharm, average of 2, T0): 100% | Radiochemical Purity (HPLC) Ga-68 PSMA-11 (%) (25 mg ascorbic acid, 46.0-46.1 mCi, 4.38-4.39 mCi/mL, EZAG GalliaPharm, average of 2, T4 (4 h)): 100% | Radiochemical Purity (HPLC) Ga-68 PSMA-11 (%) (25 mg ascorbic acid, 46.0-46.1 mCi, 4.38-4.39 mCi/mL, EZAG GalliaPharm, n=2, T0): C (C = all results conform to specifications) | Radiochemical Purity (HPLC) Ga-68 PSMA-11 (%) (25 mg ascorbic acid, 46.0-46.1 mCi, 4.38-4.39 mCi/mL, EZAG GalliaPharm, n=2, T4 (4 h)): C (C = all results conform to specifications) | Radiochemical Purity (HPLC) Ga-68 PSMA-11 (%) (bracketing ~1 mCi/mL, 18.75 mg ascorbic acid, 8.9-11.5 mCi, 0.85-1.09 mCi/mL, IRE Galli Eo, average of 2, T0): 100% | Radiochemical Purity (HPLC) Ga-68 PSMA-11 (%) (bracketing ~1 mCi/mL, 18.75 mg ascorbic acid, 8.9-11.5 mCi, 0.85-1.09 mCi/mL, IRE Galli Eo, average of 2, T1 (1 h)): 100% | Radiochemical Purity (HPLC) Ga-68 PSMA-11 (%) (bracketing ~1 mCi/mL, 25 mg ascorbic acid, 8.8-12.7 mCi, 0.84-1.21 mCi/mL, 2 × IRE Galli Eo, average of 2, T0): 99% | Radiochemical Purity (HPLC) Ga-68 PSMA-11 (%) (bracketing ~1 mCi/mL, 25 mg ascorbic acid, 8.8-12.7 mCi, 0.84-1.21 mCi/mL, 2 × IRE Galli Eo, average of 2, T1 (1 h)): 100% | Radiochemical Purity (HPLC) Ga-68 PSMA-11 (%) (bracketing ~1 mCi/mL, 31.25 mg ascorbic acid, 15.2-26.9 mCi, 1.44-2.54 mCi/mL, EZAG GalliaPharm, average of 2, T0): 100% | Radiochemical Purity (HPLC) Ga-68 PSMA-11 (%) (bracketing ~1 mCi/mL, 31.25 mg ascorbic acid, 15.2-26.9 mCi, 1.44-2.54 mCi/mL, EZAG GalliaPharm, average of 2, T1 (1 h)): 100% | Radiochemical Purity (HPLC) Ga-68 PSMA-11 (%) (bracketing ~7 mCi/mL, 18.75 mg ascorbic acid, 51.0-58.0 mCi, 5.55-6.5 mCi/mL, IRE Galli Eo, average of 2, T0): 100% | Radiochemical Purity (HPLC) Ga-68 PSMA-11 (%) (bracketing ~7 mCi/mL, 18.75 mg ascorbic acid, 51.0-58.0 mCi, 5.55-6.5 mCi/mL, IRE Galli Eo, average of 2, T4 (4 h)): 100% | Radiochemical Purity (HPLC) Ga-68 PSMA-11 (%) (bracketing ~7 mCi/mL, 25 mg ascorbic acid, 51.6-74.4 mCi, 4.56-6.92 mCi/mL, 3 × GE Liquid Target, 3 × IRE Galli Eo, 3 × EZAG GalliaPharm, average of 9, T0): 100% | Radiochemical Purity (HPLC) Ga-68 PSMA-11 (%) (bracketing ~7 mCi/mL, 25 mg ascorbic acid, 51.6-74.4 mCi, 4.56-6.92 mCi/mL, 3 × GE Liquid Target, 3 × IRE Galli Eo, 3 × EZAG GalliaPharm, average of 9, T4 (4 h)): 100% | Radiochemical Purity (HPLC) Ga-68 PSMA-11 (%) (bracketing ~7 mCi/mL, 31.25 mg ascorbic acid, 61.5-62.0 mCi, 5.85-5.88 mCi/mL, EZAG GalliaPharm, average of 2, T0): 100% | Radiochemical Purity (HPLC) Ga-68 PSMA-11 (%) (bracketing ~7 mCi/mL, 31.25 mg ascorbic acid, 61.5-62.0 mCi, 5.85-5.88 mCi/mL, EZAG GalliaPharm, average of 2, T4 (4 h)): 100% | Radiochemical Purity (HPLC) Ga-68 PSMA-11 (%) (bracketing ~50 mCi/mL, 20 mg ascorbic acid, 514-544 mCi, 48.3-51.9 mCi/mL, GE Solid Target, average of 2, T0): 100% | Radiochemical Purity (HPLC) Ga-68 PSMA-11 (%) (bracketing ~50 mCi/mL, 20 mg ascorbic acid, 514-544 mCi, 48.3-51.9 mCi/mL, GE Solid Target, average of 2, T6 (6 h)): 100% | Radiochemical Purity (HPLC) Ga-68 PSMA-11 (%) (bracketing ~50 mCi/mL, 25 mg ascorbic acid, 537-551 mCi, 50.2-51.6 mCi/mL, GE Solid Target, average of 3, T0): 100% | Radiochemical Purity (HPLC) Ga-68 PSMA-11 (%) (bracketing ~50 mCi/mL, 25 mg ascorbic acid, 537-551 mCi, 50.2-51.6 mCi/mL, GE Solid Target, average of 3, T6 (6 h)): 100% | Radiochemical Purity (HPLC) Ga-68 PSMA-11 (%) (bracketing ~50 mCi/mL, 31.25 mg ascorbic acid, 500-544 mCi, 48.1-51.7 mCi/mL, GE Solid Target, average of 2, T0): 100% | Radiochemical Purity (HPLC) Ga-68 PSMA-11 (%) (bracketing ~50 mCi/mL, 31.25 mg ascorbic acid, 500-544 mCi, 48.1-51.7 mCi/mL, GE Solid Target, average of 2, T6 (6 h)): 100% | Radiochemical Purity (HPLC) Ga-68 PSMA-11 (%) (validation batches, 25 mg ascorbic acid, 51.6-62.7 mCi, 4.56-5.88 mCi/mL, IRE Galli Eo, average of 3, T0): 100% | Radiochemical Purity (HPLC) Ga-68 PSMA-11 (%) (validation batches, 25 mg ascorbic acid, 51.6-62.7 mCi, 4.56-5.88 mCi/mL, IRE Galli Eo, average of 3, T4 (4 h)): 100%
